molecular target: T1, Q46 protein aggregates (Homo sapiens, UniProt P42858); assay: Q46 radioligand binding assay (RBA); settings: 10 nM ligand [3H3]MK-3328
T1 construct: fused on or other part: GST at the N-terminus, cut off with thrombin before the test to start aggregation; The wells held aggregated Q46 without GST
Procedure: Q46 Radioligand Binding Assay
For radioligand binding assays (RBA) GST-Q46 protein was generated based on a previous publication (Scherzinger et al. Cell, Vol. 90, 549-558, Aug. 8, 1997). For experiments 33 μM GST-Q46 was incubated with 150 μg/mL thrombin in assay buffer (150 mM NaCl, 50 mM Tris pH 8.0) and 2 mM CaCl2 for 16 hours at 37° C. Aggregated Q46 was pelleted by centrifugation for 5 minutes at 13,000 rpm in a bench top centrifuge and re-dissolved in the same volume of assay buffer. Test compounds were prepared by titration in DMSO at 11 concentrations from 33 μM to 1 nM. For the RBA, Q46 protein aggregates and test compounds were pre-incubated in assay buffer for 20 minutes at room temperature, in 140 μL/well in a 96-well plate (pp, round bottom). Then, ligand was added in 10 μL/well and incubated for 60 minutes at 37° C. Final assay concentrations were 1 μM to 30 pM test compound, 5 μM Q46 protein (equivalent monomer concentration) and 10 nM ligand [^3H3]MK-3328 (Harrision et al., ACS Med. Chem. Lett., 2 (2011), pp 498-502). Samples were transferred onto GF/B filter plates and washed 2× with 200 μL PBS using a Filtermate Harvester. After drying filter plates for 1 hour at 37° C., the back of the plates were sealed with foil and 30 μL/well scintillation fluid (Packard MicroScint 40) added, incubated for 15 minutes in the dark and counted in a TopCount reader. For analysis, replicate data from independent assay plates were normalized towards 0% and 100% inhibition using control wells of vehicle (0% inhibition) and 3 μM unlabelled MK-3328 (100% inhibition). IC50 values were determined with a sigmoidal inhibition model with four variables (top, bottom, slope, IC50) in a global fit using the normalized replicate data.

T1 sequence (P42858 with tags, fused parts or gaps with the stated changes, form open): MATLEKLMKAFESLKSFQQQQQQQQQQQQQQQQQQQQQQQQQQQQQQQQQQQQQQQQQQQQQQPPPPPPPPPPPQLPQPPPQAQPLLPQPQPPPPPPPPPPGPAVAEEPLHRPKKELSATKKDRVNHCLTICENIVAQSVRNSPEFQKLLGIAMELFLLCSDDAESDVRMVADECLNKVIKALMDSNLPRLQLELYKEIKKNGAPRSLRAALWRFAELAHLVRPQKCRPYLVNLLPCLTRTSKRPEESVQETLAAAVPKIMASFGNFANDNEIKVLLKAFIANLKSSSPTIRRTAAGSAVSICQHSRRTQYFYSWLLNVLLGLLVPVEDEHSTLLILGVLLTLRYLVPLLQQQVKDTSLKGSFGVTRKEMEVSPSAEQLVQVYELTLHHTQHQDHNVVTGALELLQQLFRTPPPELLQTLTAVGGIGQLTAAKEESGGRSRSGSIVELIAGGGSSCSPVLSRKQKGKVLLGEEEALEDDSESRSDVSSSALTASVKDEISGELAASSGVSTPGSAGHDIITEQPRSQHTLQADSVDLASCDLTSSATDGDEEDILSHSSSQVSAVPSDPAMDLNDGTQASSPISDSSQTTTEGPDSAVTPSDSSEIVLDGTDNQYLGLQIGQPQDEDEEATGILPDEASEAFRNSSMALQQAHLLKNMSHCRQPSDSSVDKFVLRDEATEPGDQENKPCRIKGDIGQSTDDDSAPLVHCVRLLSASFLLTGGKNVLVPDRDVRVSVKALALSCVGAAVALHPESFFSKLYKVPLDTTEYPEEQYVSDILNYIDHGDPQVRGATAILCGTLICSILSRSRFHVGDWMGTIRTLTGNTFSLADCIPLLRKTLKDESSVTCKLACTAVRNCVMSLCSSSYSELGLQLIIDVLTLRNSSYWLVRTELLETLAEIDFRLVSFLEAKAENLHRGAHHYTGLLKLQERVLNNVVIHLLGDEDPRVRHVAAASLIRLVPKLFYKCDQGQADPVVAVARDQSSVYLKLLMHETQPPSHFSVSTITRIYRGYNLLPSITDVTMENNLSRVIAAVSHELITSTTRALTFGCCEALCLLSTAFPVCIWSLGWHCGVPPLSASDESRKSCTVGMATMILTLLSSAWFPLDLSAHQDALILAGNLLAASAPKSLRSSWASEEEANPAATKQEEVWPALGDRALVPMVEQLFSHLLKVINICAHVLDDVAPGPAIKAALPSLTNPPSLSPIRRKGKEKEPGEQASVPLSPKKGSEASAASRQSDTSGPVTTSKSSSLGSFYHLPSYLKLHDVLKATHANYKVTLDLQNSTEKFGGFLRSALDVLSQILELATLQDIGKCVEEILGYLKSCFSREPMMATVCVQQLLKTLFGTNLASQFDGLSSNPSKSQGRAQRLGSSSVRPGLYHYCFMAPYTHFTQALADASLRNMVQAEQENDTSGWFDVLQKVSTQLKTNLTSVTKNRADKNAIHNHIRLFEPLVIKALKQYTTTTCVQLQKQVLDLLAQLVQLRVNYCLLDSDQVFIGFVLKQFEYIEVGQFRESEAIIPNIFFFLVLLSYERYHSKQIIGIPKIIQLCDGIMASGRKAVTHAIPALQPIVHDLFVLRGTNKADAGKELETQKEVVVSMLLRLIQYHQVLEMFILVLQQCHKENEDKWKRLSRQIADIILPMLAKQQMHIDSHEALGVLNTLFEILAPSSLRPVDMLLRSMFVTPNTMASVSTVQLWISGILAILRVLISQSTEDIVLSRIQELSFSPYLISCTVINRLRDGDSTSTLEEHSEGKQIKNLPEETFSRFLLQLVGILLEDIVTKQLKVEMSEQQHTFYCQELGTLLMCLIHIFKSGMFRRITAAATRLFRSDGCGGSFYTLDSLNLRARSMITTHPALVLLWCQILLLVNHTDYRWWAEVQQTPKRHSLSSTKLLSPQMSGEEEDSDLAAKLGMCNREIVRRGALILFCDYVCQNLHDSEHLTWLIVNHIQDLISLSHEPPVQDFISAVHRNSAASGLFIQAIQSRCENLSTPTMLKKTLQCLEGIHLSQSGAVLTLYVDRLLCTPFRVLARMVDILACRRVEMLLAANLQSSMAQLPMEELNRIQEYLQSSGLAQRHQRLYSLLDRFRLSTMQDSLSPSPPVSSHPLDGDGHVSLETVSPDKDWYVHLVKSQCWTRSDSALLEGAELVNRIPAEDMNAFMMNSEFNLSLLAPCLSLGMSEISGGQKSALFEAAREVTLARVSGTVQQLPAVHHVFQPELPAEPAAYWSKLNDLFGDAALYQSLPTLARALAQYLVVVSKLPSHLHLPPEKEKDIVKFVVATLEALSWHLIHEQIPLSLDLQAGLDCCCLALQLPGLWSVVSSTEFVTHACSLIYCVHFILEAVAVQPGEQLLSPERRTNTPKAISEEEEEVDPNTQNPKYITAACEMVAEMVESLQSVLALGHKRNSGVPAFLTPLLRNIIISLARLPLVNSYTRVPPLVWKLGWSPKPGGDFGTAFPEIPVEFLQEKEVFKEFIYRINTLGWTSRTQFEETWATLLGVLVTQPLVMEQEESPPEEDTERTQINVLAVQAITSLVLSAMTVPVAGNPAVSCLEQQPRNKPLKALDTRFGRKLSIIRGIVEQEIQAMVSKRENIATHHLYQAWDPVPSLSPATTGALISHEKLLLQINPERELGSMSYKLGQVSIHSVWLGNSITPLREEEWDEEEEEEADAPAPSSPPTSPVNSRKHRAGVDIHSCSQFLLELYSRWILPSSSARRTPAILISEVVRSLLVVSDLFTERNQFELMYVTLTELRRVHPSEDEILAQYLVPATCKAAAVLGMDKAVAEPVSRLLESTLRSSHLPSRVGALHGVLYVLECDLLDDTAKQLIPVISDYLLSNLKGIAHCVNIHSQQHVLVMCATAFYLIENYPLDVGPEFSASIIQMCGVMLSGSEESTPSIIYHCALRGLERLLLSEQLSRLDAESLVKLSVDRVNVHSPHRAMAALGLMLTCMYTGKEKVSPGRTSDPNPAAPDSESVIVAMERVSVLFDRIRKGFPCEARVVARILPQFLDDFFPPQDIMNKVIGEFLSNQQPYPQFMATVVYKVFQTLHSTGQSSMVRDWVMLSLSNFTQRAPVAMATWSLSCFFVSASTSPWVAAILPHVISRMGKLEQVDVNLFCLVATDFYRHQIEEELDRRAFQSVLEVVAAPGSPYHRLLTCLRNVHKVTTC

| SMILES | IC50 [µM] |
| --- | --- |
| O=C(COc1ccccc1)Nc1ccc2oc(-c3cccnc3)nc2c1 [2-phenoxy-N-[2-(pyridin-3-yl)-1,3-benzoxazol-5-yl]acetamide] | < 0.1 |
| COc1ccc(Nc2ccc3oc(-c4cccnc4)nc3c2)cc1 [N-(4-methoxyphenyl)-2-(pyridin-3-yl)-1,3-benzoxazol-5-amine] | 0.1 to 0.5 |
| COc1ccc(COc2ccc3oc(-c4cncs4)nc3c2)nc1 [5-[(5-methoxypyridin-2-yl)methoxy]-2-(1,3-thiazol-5-yl)-1,3-benzoxazole] | < 0.1 |
| COc1ccc(COc2ccc3oc([C@H]4Cc5ccccc5O4)nc3c2)nc1 [2-[(2R)-2,3-dihydro-1-benzofuran-2-yl]-5-[(5-methoxypyridin-2-yl)methoxy]-1,3-benzoxazole] | < 0.1 |
| COc1ccc(C(=O)Nc2ccc3oc(-c4cccc(C)c4)nc3c2)cn1 [6-methoxy-N-[2-(3-methylphenyl)-1,3-benzoxazol-5-yl]pyridine-3-carboxamide] | < 0.1 |
| O=C(Nc1ccc2oc(-c3cccnc3)nc2c1)c1ccc(COc2ccccc2)cc1 [4-(phenoxymethyl)-N-[2-(pyridin-3-yl)-1,3-benzoxazol-5-yl]benzamide] | < 0.1 |
| CNCc1cncc(-c2nc3cc(OCc4ccc(OC)cn4)ccc3o2)c1 [[(5-{5-[(5-methoxypyridin-2-yl)methoxy]-1,3-benzoxazol-2-yl}pyridin-3-yl)methyl](methyl)amine] | < 0.1 |
| COc1ccc(COc2ccc3oc(-c4ccc(=O)n(C)n4)nc3c2)nc1 [6-{5-[(5-methoxypyridin-2-yl)methoxy]-1,3-benzoxazol-2-yl}-2-methyl-2,3-dihydropyridazin-3-one] | < 0.1 |
| O=C(Nc1ccc2oc(-c3cccnc3)nc2c1)c1ccc(C(F)(F)F)nc1 [N-[2-(pyridin-3-yl)-1,3-benzoxazol-5-yl]-6-(trifluoromethyl)pyridine-3-carboxamide] | < 0.1 |
| O=C(Cc1ccc2oc(-c3cccnc3)nc2c1)c1ccccn1 [1-(pyridin-2-yl)-2-[2-(pyridin-3-yl)-1,3-benzoxazol-5-yl]ethan-1-one] | 0.1 to 0.5 |
| COc1ccc(-c2nc3cc(NC(=O)c4cccc(OC)c4)ccc3o2)cc1 [3-methoxy-N-[2-(4-methoxyphenyl)-1,3-benzoxazol-5-yl]benzamide] | < 0.1 |
| COc1ccc(COc2ccc3oc([C@@H]4Cc5ccccc5O4)nc3c2)nc1 [2-[(2S)-2,3-dihydro-1-benzofuran-2-yl]-5-[(5-methoxypyridin-2-yl)methoxy]-1,3-benzoxazole] | < 0.1 |
| O=C(Nc1ccc2oc(-c3cccnc3)nc2c1)c1cc(O)ccn1 [4-hydroxy-N-[2-(pyridin-3-yl)-1,3-benzoxazol-5-yl]pyridine-2-carboxamide] | 0.1 to 0.5 |
| COCCOc1cncc(-c2nc3cc(OCc4ccc(OC)cn4)ccc3o2)c1 [2-[5-(2-methoxyethoxy)pyridin-3-yl]-5-[(5-methoxypyridin-2-yl)methoxy]-1,3-benzoxazole] | < 0.1 |
| COc1cncc(COc2cnc3oc(-c4cccnc4)nc3c2)c1 [3-methoxy-5-({[2-(pyridin-3-yl)-[1,3]oxazolo[5,4-b]pyridin-6-yl]oxy}methyl)pyridine] | < 0.1 |
| COc1ccc(COc2ccc3oc(-c4ccc[n+]([O-])c4)nc3c2)nc1 [3-{5-[(5-methoxypyridin-2-yl)methoxy]-1,3-benzoxazol-2-yl}pyridin-1-ium-1-olate] | < 0.1 |
| Oc1cnc(-c2ccc3oc(-c4cccnc4)nc3c2)cn1 [5-[2-(pyridin-3-yl)-1,3-benzoxazol-5-yl]pyrazin-2-ol] | 0.1 to 0.5 |
| O=C(Nc1ccc2oc(-c3cccnc3)nc2c1)c1cccnc1Oc1ccccc1 [2-phenoxy-N-[2-(pyridin-3-yl)-1,3-benzoxazol-5-yl]pyridine-3-carboxamide] | < 0.1 |
| O=C(Nc1ccc2oc(-c3cccnc3)nc2c1)c1ccc(-c2ncccn2)cc1 [N-[2-(pyridin-3-yl)-1,3-benzoxazol-5-yl]-4-(pyrimidin-2-yl)benzamide] | < 0.1 |
| COc1ccc(COc2ccc3oc(-c4cccnn4)nc3c2)nc1 [5-[(5-methoxypyridin-2-yl)methoxy]-2-(pyridazin-3-yl)-1,3-benzoxazole] | < 0.1 |
| Cc1cc(C(=O)Nc2ccc3oc(-c4cccnc4)nc3c2)ccn1 [2-methyl-N-[2-(pyridin-3-yl)-1,3-benzoxazol-5-yl]pyridine-4-carboxamide] | < 0.1 |
| O=C(Nc1ccc2oc(-c3cccnc3)nc2c1)C1Cc2ccccc2O1 (stereo not shown) [N-[2-(pyridin-3-yl)-1,3-benzoxazol-5-yl]-2,3-dihydro-1-benzofuran-2-carboxamide] | < 0.1 |

| SMILES | IC50 [µM] |
| --- | --- |
| COc1cnc(-c2ccc3oc(-c4cccnc4)nc3c2)cn1 [5-(5-methoxypyrazin-2-yl)-2-(pyridin-3-yl)-1,3-benzoxazole] | < 0.1 |
| CNc1ccc(-c2nc3cc(OCc4ccc(OC)cn4)ccc3o2)cn1 [5-{5-[(5-methoxypyridin-2-yl)methoxy]-1,3-benzoxazol-2-yl}-N-methylpyridin-2-amine] | < 0.1 |
| COc1cnc(COc2ccc3c(c2)nc(-c2cccnc2)n3C)cn1 [5-[(5-methoxypyrazin-2-yl)methoxy]-1-methyl-2-(pyridin-3-yl)-1H-1,3-benzodiazole] | 0.1 to 0.5 |
| N#Cc1cnccc1-c1cc2cc(OCc3cncnc3)ccc2o1 [4-[5-(pyrimidin-5-ylmethoxy)-1-benzofuran-2-yl]pyridine-3-carbonitrile] | < 0.1 |
| c1ccc(COc2ccc3oc(-c4cccnc4)nc3c2)nc1 [5-(pyridin-2-ylmethoxy)-2-(pyridin-3-yl)-1,3-benzoxazole] | 0.1 to 0.5 |
| COc1ccnc(C(=O)Nc2ccc3oc(-c4cccnc4)nc3c2)c1 [4-methoxy-N-[2-(pyridin-3-yl)-1,3-benzoxazol-5-yl]pyridine-2-carboxamide] | < 0.1 |
| COc1ccc(COc2ccc3oc(N4Cc5cccnc5C4)nc3c2)nc1 [5-[(5-methoxypyridin-2-yl)methoxy]-2-{5H,6H,7H-pyrrolo[3,4-b]pyridin-6-yl}-1,3-benzoxazole] | < 0.1 |
| COc1ccc(COc2ccc3oc(N4CC(F)C4)nc3c2)nc1 [2-(3-fluoroazetidin-1-yl)-5-[(5-methoxypyridin-2-yl)methoxy]-1,3-benzoxazole] | 0.1 to 0.5 |
| Cn1cc(COc2ccc3oc(-c4cccnc4)nc3c2)cn1 [5-[(1-methyl-1H-pyrazol-4-yl)methoxy]-2-(pyridin-3-yl)-1,3-benzoxazole] | 0.1 to 0.5 |
| CC(C)(C)OC(=O)N1CCN(c2ccc3oc(-c4cccnc4)nc3c2)CC1 [tert-butyl 4-[2-(pyridin-3-yl)-1,3-benzoxazol-5-yl]piperazine-1-carboxylate] | 0.1 to 0.5 |
| C1=C(COc2ccc3oc(-c4cccnc4)nc3c2)N2CCN=C2S1 [5-{5H,6H-imidazo[2,1-b][1,3]thiazol-3-ylmethoxy}-2-(pyridin-3-yl)-1,3-benzoxazole] | 0.1 to 0.5 |
| CN(C)CCOc1ccc(COc2ccc3oc(-c4cccnc4)nc3c2)cc1 [dimethyl({2-[4-({[2-(pyridin-3-yl)-1,3-benzoxazol-5-yl]oxy}methyl)phenoxy]ethyl})amine] | 0.1 to 0.5 |
| COc1ccc(COc2ccc3oc(-c4cnccn4)nc3c2)nc1 [5-[(5-methoxypyridin-2-yl)methoxy]-2-(pyrazin-2-yl)-1,3-benzoxazole] | < 0.1 |
| Cn1cc(-c2nc3cc(OCc4cnccn4)cnc3o2)cn1 [2-({[2-(1-methyl-1H-pyrazol-4-yl)-[1,3]oxazolo[5,4-b]pyridin-6-yl]oxy}methyl)pyrazine] | 0.1 to 0.5 |
| N#Cc1cnccc1-c1cc2cc(OCc3cnn(CCO)c3)ccc2o1 [4-(5-{[1-(2-hydroxyethyl)-1H-pyrazol-4-yl]methoxy}-1-benzofuran-2-yl)pyridine-3-carbonitrile] | < 0.1 |
| COc1ccc(COc2cnc3oc(-c4ccc[n+]([O-])c4)nc3c2)[n+]([O-])c1 [3-{6-[(5-methoxy-1-oxidopyridin-1-ium-2-yl)methoxy]-[1,3]oxazolo[5,4-b]pyridin-2-yl}pyridin-1-ium-1-olate] | 0.1 to 0.5 |
| COc1ccc(COc2ccc3oc(-c4ccncc4C#N)cc3c2)nc1 [4-{5-[(5-methoxypyridin-2-yl)methoxy]-1-benzofuran-2-yl}pyridine-3-carbonitrile] | < 0.1 |
| O=C(Nc1ccc2oc(-c3cccnc3)nc2c1)c1cnc(-c2ccccc2)nc1 [2-phenyl-N-[2-(pyridin-3-yl)-1,3-benzoxazol-5-yl]pyrimidine-5-carboxamide] | < 0.1 |
| O=C(Nc1ccc2oc(-c3cccnc3)nc2c1)c1cc2ccccc2o1 [N-[2-(pyridin-3-yl)-1,3-benzoxazol-5-yl]-1-benzofuran-2-carboxamide] | < 0.1 |
| Brc1cnccc1-c1nc2ccc(OCCN3CCOCC3)cc2s1 [2-(3-bromopyridin-4-yl)-6-[2-(morpholin-4-yl)ethoxy]-1,3-benzothiazole] | < 0.1 |
| COc1cnc(COc2ccc3[nH]c(-c4cccnc4)nc3c2)cn1 [5-[(5-methoxypyrazin-2-yl)methoxy]-2-(pyridin-3-yl)-1H-1,3-benzodiazole] | < 0.1 |
